Measured values taken from US6172205A, “Synthetic process toward total synthesis of eleutherobin and its analogues and uses thereof” (The Trustees of Columbia in the City of New York, priority 1998, dated 2001).
Where “and” joins values, the source holds several entries; their conditions need not be identical. Equal entries are not always repeated. Entries after “also recorded” stand apart in the source; their conditions may differ. Where two headings read alike, the source gives them in different places.

Legend:
[1] = Overall biological activity, all parameters tested
Procedure: (§1) Taxol-resistant and sensitive cell lines were seeded into 12-well plates at a density of 5×10^4 cells per well and allowed a period of 12 h for attachment prior to treatment. Cells were exposed to 10-fold serial dilutions of each compound (10^-10 to 10^-6 M) for 72 h. Cells were then trypsinized and counted (Coulter counter model ZF0031, Coulter Corp., Miami, Fla.). The IC50 was determined by plotting cell number against log of the drug concentration and this was used to determine the concentration of compound resulting in 50% growth inhibition compared to untreated cells. Each cell line was assayed in a minimum of 3 independent experiments with each compound and the results expressed as the mean IC50.
(§2) The ability of each compound to polymerize tubulin was evaluated by recording the change in turbidity of microtubule protein at 350 nm for 80 min in a spectrophotometer (UVIKON, Research Instruments Int., SD, Calif.). One mg of purified microtubule protein was diluted in assembly buffer containing 0.1 M MES, 1 mM EGTA, 0.5 mM MgCl2 and 3 M glycerol, pH 6.6. All compounds were evaluated at a concentration of 10 μM at 37° C. GTP was used at a final concentration of 1 mM. Microtubule stability was assessed by the addition of 10 mM Ca^++. changes from t=0-10 min were used to calculate initial slopes from the linear portion of each curve. These values were used to calculate the activity of each compound (relative to the activity of Taxol which was assigned a value of 100%).
(§3) NIH 3T3 cells were grown to subconfluency on glass converslips in 35 mm plastic petri dishes. Cells were exposed to 2 μM of Taxol and each of the experimental compounds for 5.5 h at 37° C., rinsed twice in PBS and extracted with 0.5% Triton-X-100 in microtubule stabilizing buffer (PEM) (100 mM PIPES, 2 mM EGTA and 2 mM MgCl2, pH 6.8) for 4 min. Following a wash in PEM, the cells were fixed for 40 min at room temperature in 3% formaldehyde in PEM followed by incubation in 0.1 M glycine in PBS for 10 min and washing (four times) in PEM containing 5 μM EGTA. Following blocking in 20% normal goat serum (NGS) for 30 min at room temperature, cells were incubated for 1 h at 37° C. with a 1:100 dilution of β-tubulin mAb diluted in 10% NGS, washed twice in 1% BSA, once in PBS and three times in 1% BSA. Cells were then incubated in a 1:200 dilution of the secondary fluorophore antibody, IndocarbocyanineCY3 (Jackson Immunoresearch Laboratories Inc., Pa.) in 20% NGS for 20 min at room temperature. Finally cells were washed three times in 1% BSA and the dried slides mounted in 30% glycerol in PBS containing […]-phenylene diamine (1 mg/ml). Fixed slides were examined using a Zeiss Axioskop microscope.

[2] = test system: SKVBL (MDR variant of SKOV3); assay: Cytotoxicity by counting cells after 72 h, MDR variant cells; assay type: cell-based, human; conditions: for IC50: Homo sapiens, SK-OV-3, Ovarian Carcinoma SKOV3, Resistant (SKVBL), 72 h, mean of at least three independent experiments; for cross-resistance in SKVBL (in words): MDR1 expressing cells, high P-glycoprotein; for fold resistance relative to the parental cell line: SKVBL vs SKOV3
Procedure: (§4) Human non-small cell lung carcinoma cells, A549, were maintained in RPMI 1640 containing 10% fetal bovine serum and 1% penicillin-streptomycin (Gibco Laboratories, Grand Island N.Y.) at 37° C. in 7% CO2. The Taxol-resistant cell line A549-T12 was selected for resistance to Taxol and maintained in a final concentration of 12 nM drug (21). Human ovarian carcinoma cells SKOV3 and the MDR variant SKVBL (obtained from Dr. V. Ling) were maintained in α-mem plus ribonucleotides, deoxynucleotides, 15% fetal bovine serum and 1% penicillin-streptomycin (Gibco Laboratories) at 37° C. in 5% CO2. SKVBL cells were maintained in […] vinblastine (Sigma Chemical Co.).
as §1
(§5) The cytotoxic efficacy of eleutherobin and its derivatives (FIG. 6) was evaluated in two drug sensitive human cancer cell lines and their Taxol-resistant counterparts. The results are summarized in Table I in order of decreasing potency. […] The Taxol-resistant cell line SKVBL overexpresses high levels of P-glycoprotein (22). […] The only difference between the two agents is the enantiomeric relationship in the carbohydrate (2'-acetylarabinose) sector (FIG. 6). […] This cell line expressed high levels of MDR1 resulting in Taxol-resistance equal or greater than 1666 -fold compared to the Taxol-sensitive SKOV3 cell line.
(§6) ^a Cytotoxicity determined by counting cells after 72 h drug exposure.

[3] = test system: A549-T12 (Taxol-resistant A549); assay: Cytotoxicity by counting cells after 72 h, Taxol-resistant cells; assay type: cell-based, human; conditions: for fold resistance relative to the parental cell line: A549-T12 vs A549, 4320 min; for IC50: Homo sapiens, Lung Carcinoma A549, Resistant (A549-T12), 72 h, mean of at least three independent experiments; for cross-resistance in A549-T12 (in words): Taxol-resistant, not expressing P-glycoprotein
Procedure: as §4, §1, §5, §6

[4] = test system: Human ovarian carcinoma cells SKOV3; assay: Cytotoxicity by counting cells after 72 h, Taxol-sensitive cells; assay type: cell-based
Procedure: as §4, §1, §6

microtubule protein = assay: Stability of microtubules against Ca++-induced depolymerization; assay type: biochemical, calf; conditions: 10 mM CaCl2
Procedure: (§7) Eleutherobin and its derivatives were synthesized as described (18,19). Taxol was obtained from the Drug Development Branch, National Cancer Institute (Bethesda, Md.). All compounds were dissolved in dimethyl sulfoxide (Sigma Chemical Co., St. Louis, Mo.) at stock concentrations of 5 mM and stored at -20° C. All control samples contained an equal volume of DMSO. GTP was obtained from Sigma Chemical Co. And dissolved in sterile distilled water at a concentration of 10 mM and stored at -20° C. Microtubule protein was purified from calf brains by two cycles of temperature-dependent assembly and disassembly (20) and stored in liquid nitrogen prior to use. The anti-mouse β-tubulin monoclonal antibody T-4026 was obtained from Sigma Chemical Co.
as §2
The ability of each compound to polymerize and/or stabilize microtubules was assessed (FIG. 7). To investigate whether eleutherobin and its derivatives shared the microtubule stabilizing properties of Taxol, 10 mM CaCl2 was added to each sample after maximum microtubule polymerization occurred, and the effects on turbidity recorded spectrophotometrically. A positive control was included in which 1 mM GTP was used to confirm the ability of GTP-stabilized microtubules to undergo Ca^++ induced depolymerization.
The ability of this compound to stabilize microtubules formed in the presence of GTP was examined. After a period of 15 min, 10 mM Ca^++ was added and the change in turbidity recorded.

[5] = test system: tubulin / microtubule protein; assay: Tubulin polymerization by turbidity at 350 nm in the absence of GTP; assay type: biochemical, calf; conditions: 10 μM; for tubulin polymerization (in words): 37 °C, absence of GTP
Procedure: as §7
as §2, with “GTP was used at a final concentration of 1 mM.” left out
The polymerization activity of these compounds was also assessed by determining the slope of the linear portion of each curve at A350 nm (t=0-10 min), and expressing this relative to Taxol (which was assigned a value of 100% (FIG. 8). The order of activity of eleutherobin and derivatives using this method, corroborates the results obtained from cytotoxicity studies.

[6] = test system: cellular microtubules, NIH 3T3 cells; assay: Microtubule bundle formation by immunofluorescence; assay type: cell-based; conditions: 2 μM, 5.5 h; for microtubule bundle formation (in words): 37 °C
Procedure: FIG. 9 immunofluorescence images NIH3T3 cells labeled with β-tubulin antibody following exposure to different drugs. A)DMSO; B)2 μM Taxol; C)2 μM eleutherobin; D)2 μM neo-eleutherobin; E)2 μM SKBII.294; F)2 μM SKBIII.13.
Illustrates the effects of eleutherobin and its derivatives on the morphology of cellular microtubules following exposure of cells to 2 μM of each compound for 5.5 h at 37° C. […] The number of micotic asters correlated with the extent of microtubule bundling in interphase cells.
as §3

P-glycoprotein = P-glycoprotein substrate behaviour inferred from resistance of SKVBL cells; assay type: cell-based, human
Procedure: as §4, §1, §5

[7] = test system: Human non-small cell lung carcinoma cells, A549; assay: Cytotoxicity by counting cells after 72 h, Taxol-sensitive cells; assay type: cell-based; conditions: for IC50: Homo sapiens
Procedure: Taxol-resistant and sensitive cell lines were seeded into 12-well plates at a density of 5×10^4 cells per well and allowed a period of 12 h for attachment prior to treatment. […] Cells were then trypsinized and counted (Coulter counter model ZF0031, Coulter Corp., Miami, Fla.).

[8] = Solubility compared to eleutherobin; assay type: physicochemical
[9] = sensitive cell lines (A549, SKOV3)

CO[C@]12C=C[C@](C)(O1)[C@@H](OC(=O)/C=C/c1cn(C)cn1)C[C@H]1C(C)=CC[C@H](C(C)C)[C@H]1C=C2CO[C@H]1OC[C@H](O)[C@H](O)[C@H]1OC(C)=O [Neo-Eleutherobin]
biological activity (in words) [1]: less active than eleutherobin in all of the parameters examined | IC50 [2]: > 1000 nM | cross-resistance in SKVBL (in words) [2]: exhibited cross-resistance in an MDR1 expressing cell line; also recorded: demonstrated cross-resistance | fold resistance relative to the parental cell line [3]: 1.2 fold | IC50 [3]: 146 nM | cross-resistance in A549-T12 (in words) [3]: neither eleutherobin nor neo-eleutherobin displayed cross-resistance; also recorded: neither of these compounds showed cross-resistance | IC50 ([4]; SK-OV-3, 72 h): 134 nM | stabilization against Ca++-induced depolymerization (in words) (microtubule protein): the microtubules formed also resisted Ca^++ -induced depolymerization | microtubule polymerization activity relative to eleutherobin [5]: 69% | microtubule bundle formation (in words) [6]: the extent of bundling was reduced | multiple asters in mitotic cells ([6]; data not shown): also seen in eleutherobin and neo-eleutherobin-treated cells | P-glycoprotein substrate (in words) (P-glycoprotein): excellent substrates for P-glycoprotein | IC50 ([7]; A549, 72 h): 125 nM | fold less active / less cytotoxic than eleutherobin [7, 9]: 20 fold and 14-20 fold

CO[C@]12C=C[C@@H]3[C@@H](C(C)C)CC=C(C)[C@@H]3C[C@H](OC(=O)/C=C/c3cn(C)cn3)[C@](C)(C=C1)O2 [SKBII.296]
solubility (in words) [8]: reduced solubility compared to eleutherobin | IC50 [2]: 1350 nM | cross-resistance in SKVBL (in words) [2]: no cross resistance to SKVBL cells | fold resistance relative to the parental cell line [2]: 0.8 fold | fold resistance relative to the parental cell line [3]: 10 fold | IC50 [3]: 4000 nM | cross-resistance in A549-T12 (in words) [3]: considerable cross-resistance | IC50 ([4]; SK-OV-3, 72 h): 1630 nM | microtubule polymerization activity relative to eleutherobin [5]: 54% | microtubule bundle formation (in words) [6]: reduced bundle formation in cultured cells; also recorded: induced less bundle formation than neo-eleutherobin | P-glycoprotein substrate (in words) (P-glycoprotein): considerably less attractive for P-glycoprotein compared to eleutherobin and neo-eleutherobin | IC50 ([7]; A549, 72 h): 400 nM | cytotoxicity (in words) [7, 9]: less cytotoxic than either eleutherobin or neo-eleutherobin

CO[C@]12C=C[C@](C)(O1)[C@@H](O)C[C@H]1C(C)=CC[C@H](C(C)C)[C@H]1C=C2CO[C@@H]1OC[C@@H](O)[C@@H](O)[C@@H]1O [SKBIII.13]
biological activity (in words) [1]: basically inactive by all parameters tested | biological activity (in words) ([1]; listed as SKBII.13): biologically inactive | IC50 ([4]; SK-OV-3, Ovarian Carcinoma SKOV3, Sensitive, 72 h, mean of at least three independent experiments, read-out: IC50): > 5000 nM | stabilization against Ca++-induced depolymerization (in words) (microtubule protein): unable to stabilize GTP-polymerized microtubules against Ca^++ induced depolymerization | tubulin polymerization (in words) [5]: inactive in tubulin polymerization assays | tubulin polymerization (in words) ([5]; listed as SKBII.13): forfeited the ability to polymerize microtubules | microtubule bundle formation (in words) [6]: a fine microtubule network without bundle formation | IC50 ([7]; Lung Carcinoma A549, Sensitive, 72 h, mean of at least three independent experiments, read-out: IC50): 4150 nM | cytotoxicity (in words) [7, 9]: its cytotoxicity is greatly reduced

CC(=O)O[C@H]1C(=O)[C@@]2(C)[C@H]([C@H](OC(=O)c3ccccc3)[C@]3(O)C[C@H](OC(=O)[C@H](O)[C@@H](NC(=O)c4ccccc4)c4ccccc4)C(C)=C1C3(C)C)[C@]1(OC(C)=O)CO[C@@H]1C[C@@H]2O [Taxol, reference compound]
IC50 [2]: > 5000 nM | fold resistance relative to the parental cell line [2]: ≥ 1666 fold | fold resistance relative to the parental cell line [3]: 7 fold and 7.1 fold | IC50 [3]: 14.2 nM | IC50 ([4]; SK-OV-3, 72 h): 3 nM | stabilization against Ca++-induced depolymerization (in words) (microtubule protein): stabilized microtubules against Ca^++ -induced depolymerization | microtubule bundle formation (in words) [6]: identical to that seen in Taxol-treated cells | P-glycoprotein substrate (in words) (P-glycoprotein): excellent substrates for P-glycoprotein | IC50 ([7]; A549, 72 h): 2 nM
